From patent US9150568B2, “Compositions and methods for modulating FXR” (NOVARTIS AG, priority 2010, dated 2015)

Target: T1, human Farnesoid X Receptor (FXR) ligand binding domain (GST-FXR LBD) (Homo sapiens, UniProt Q96RI1)
T1 construct: purchased Invitrogen
T1 sequence (Q96RI1 193-472 isoform Q96RI1-2): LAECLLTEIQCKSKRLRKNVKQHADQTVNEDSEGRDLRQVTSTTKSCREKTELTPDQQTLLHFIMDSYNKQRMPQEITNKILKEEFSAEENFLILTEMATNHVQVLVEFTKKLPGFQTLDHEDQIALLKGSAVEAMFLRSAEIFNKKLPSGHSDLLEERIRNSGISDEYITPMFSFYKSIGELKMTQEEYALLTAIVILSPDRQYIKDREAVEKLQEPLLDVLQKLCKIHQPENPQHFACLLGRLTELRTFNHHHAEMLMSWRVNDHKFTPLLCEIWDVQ
Test: Human GST-FXR LBD co-activator interaction assay (HTRF)
Assay type: biochemical
Conditions: GST-FXR LBD / biotin-SRC-1 peptide FRET; response relative to GW4064; read-out: FXR Co-activator interaction assay (EC50)
Procedure, shortened: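 FRET (HTRF) read-out of ligand-induced binding between GST-FXR LBD and an SRC-1 peptide, detected with anti-GST cryptate and streptavidin-XL665 in buffer with 50 mM KF. Response % was normalized to DMSO and to the maximal GW4064 response. EC50 came from a four-parameter fit.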

| Compound | EC50 [nM] |
| --- | --- |
| O=C(O)c1ccc(N2[C@@H]3CC[C@H]2C[C@@H](OCc2c(-c4ccccc4C4CC4)noc2C2CC2)C3)nc1 [Example 30-24] | 4 |
| Cc1cc(C(=O)O)cnc1N1[C@@H]2CC[C@H]1C[C@@H](OCc1c(-c3c(F)cccc3F)noc1C1CC1)C2 [Example 30-25] | 3 |
| Cc1cc(N2C3CC[C@H]2CC(OCc2c(-c4c(F)cccc4F)noc2C2CC2)C3)ncc1C(=O)O (some centres unmarked) [Example 30-26] | 7 |
| O=C(O)c1cccc(N2[C@@H]3CC[C@H]2C[C@@H](OCc2c(-c4ccccc4OC(F)F)noc2C2CC2)C3)n1 [Example 30-27] | 7 |
| COC(=O)c1cc(C)c2nc(N3C4CC[C@H]3CC(OCc3c(-c5ccccc5OC(F)(F)F)noc3C3CC3)C4)sc2c1 (some centres unmarked) [Example 30-28] | 12 |
| Cc1cc(C(=O)O)cc2sc(N3C4CC[C@H]3CC(OCc3c(-c5ccccc5OC(F)(F)F)noc3C3CC3)C4)nc12 (some centres unmarked) [Example 30-29] | 0.5 |
| COC(=O)c1cc(C)c2nc(N3C4CC[C@H]3CC(OCc3c(-c5ccccc5C(F)(F)F)noc3C3CC3)C4)sc2c1 (some centres unmarked) [Example 30-30] | 120 |
| Cc1cc(C(=O)O)cc2sc(N3C4CC[C@H]3CC(OCc3c(-c5ccccc5C(F)(F)F)noc3C3CC3)C4)nc12 (some centres unmarked) [Example 30-31] | 7 |
| COC(=O)c1cc(C)c2nc(N3[C@@H]4CC[C@H]3C[C@@H](OCc3c(-c5c(F)cccc5F)noc3C3CC3)C4)sc2c1 [Example 30-32] | 149 |
| Cc1cc(C(=O)O)cc2sc(N3C4CC[C@H]3CC(OCc3c(-c5c(F)cccc5F)noc3C3CC3)C4)nc12 (some centres unmarked) [Example 30-33] | 0.7 |
| Cc1cc(C(=O)O)cc2sc(N3C4CC[C@H]3CC(OCc3c(-c5ccccc5F)noc3C3CC3)C4)nc12 (some centres unmarked) [Example 30-34] | 1.8 |
| Cc1cc(C(=O)O)cc2sc(N3C4CC[C@H]3CC(OCc3c(-c5ccc(F)cc5)noc3C3CC3)C4)nc12 (some centres unmarked) [Example 30-35] | 46 |
| Cc1ccccc1-c1noc(C2CC2)c1COC1CC2CC[C@@H](C1)N2c1nc2c(C)cc(C(=O)O)cc2s1 (some centres unmarked) [Example 30-36] | 1.1 |
| COC(=O)c1cc(C)c2nc(N3C4CC[C@H]3CC(OCc3c(-c5ccccc5C)noc3C3CC3)C4)sc2c1 (some centres unmarked) [Example 30-37] | 140 |
| Cc1cc(C(=O)O)cc2sc(N3[C@@H]4CC[C@H]3C[C@@H](OCc3c(-c5ccc(F)cc5F)noc3C3CC3)C4)nc12 [Example 30-38] | 1.8 |
| COC(=O)c1cc(Br)c2nc(N3C4CC[C@H]3CC(OCc3c(-c5ccccc5OC(F)(F)F)noc3C3CC3)C4)sc2c1 (some centres unmarked) [Example 30-39] | 36 |
| O=C(O)c1cc(Br)c2nc(N3C4CC[C@H]3CC(OCc3c(-c5ccccc5OC(F)(F)F)noc3C3CC3)C4)sc2c1 (some centres unmarked) [Example 30-40] | 0.7 |
| O=C(O)c1cc(C2CC2)nc(N2C3CC[C@H]2CC(OCc2c(-c4ccccc4OC(F)F)noc2C2CC2)C3)n1 (some centres unmarked) [Example 30-41] | 4 |
| O=C(O)c1cc(C2CC2)nc(N2C3CC[C@H]2CC(OCc2c(-c4ccccc4OC(F)(F)F)noc2C2CC2)C3)n1 (some centres unmarked) [Example 30-42] | 3 |
| O=C(O)c1cc(C2CC2)nc(N2C3CC[C@H]2CC(OCc2c(-c4ccccc4C(F)(F)F)noc2C2CC2)C3)n1 (some centres unmarked) [Example 30-43] | 4.6 |
| Cc1nc(N2C3CC[C@H]2CC(OCc2c(-c4ccccc4OC(F)(F)F)noc2C2CC2)C3)ccc1C(=O)O (some centres unmarked) [Example 30-44] | 8 |
| Cc1nc(N2C3CC[C@H]2CC(OCc2c(-c4ccccc4C(F)(F)F)noc2C2CC2)C3)ccc1C(=O)O (some centres unmarked) [Example 30-45] | 18 |
| Cc1ccccc1-c1noc(C2CC2)c1CO[C@H]1C[C@H]2CC[C@@H](C1)N2c1ccc(C(=O)O)c(C)n1 [Example 30-46] | 220 |
| Cc1nc(N2[C@@H]3CC[C@H]2C[C@@H](OCc2c(-c4c(F)cccc4F)noc2C2CC2)C3)ccc1C(=O)O [Example 30-47] | 120 |

| Compound | EC50 [nM] |
| --- | --- |
| Cc1nc(N2[C@@H]3CC[C@H]2C[C@@H](OCc2c(-c4ccccc4F)noc2C2CC2)C3)ccc1C(=O)O [Example 30-48] | 34 |
| Cc1cccc(C)c1-c1noc(C2CC2)c1COC1CC2CC[C@@H](C1)N2c1ccc(C(=O)O)c(C)n1 (some centres unmarked) [Example 30-49] | 140 |
| Cc1nc(N2[C@@H]3CC[C@H]2C[C@@H](OCc2c(-c4cccc(F)c4)noc2C2CC2)C3)ccc1C(=O)O [Example 30-50] | 700 |
| Cc1cccc(F)c1-c1noc(C2CC2)c1CO[C@H]1C[C@H]2CC[C@@H](C1)N2c1ccc(C(=O)O)c(C)n1 [Example 30-51] | 52 |
| Cc1nc(N2C3CC[C@H]2CC(OCc2c(-c4c(F)cccc4Cl)noc2C2CC2)C3)ccc1C(=O)O (some centres unmarked) [Example 30-52] | 26 |
| O=C(O)c1ccc2nc(N3C4CC[C@H]3CC(OCc3c(-c5ccccc5OC(F)(F)F)noc3C3CC3)C4)ccc2c1 (some centres unmarked) [Example 30-53] | 1 |
| O=C(O)c1ccc2nc(N3C4CC[C@H]3CC(OCc3c(-c5ccccc5C(F)(F)F)noc3C3CC3)C4)ccc2c1 (some centres unmarked) [Example 30-54] | 16 |
| O=C(O)c1cccc2nc(N3C4CC[C@H]3CC(OCc3c(-c5ccccc5OC(F)(F)F)noc3C3CC3)C4)ccc12 (some centres unmarked) [Example 30-55] | 1 |
| O=C(O)c1ccc2c(N3C4CC[C@H]3CC(OCc3c(-c5ccccc5OC(F)(F)F)noc3C3CC3)C4)ncnc2c1 (some centres unmarked) [Example 30-56] | 5.7 |
| Cn1ccc2c(N3C4CC[C@H]3CC(OCc3c(-c5ccccc5OC(F)(F)F)noc3C3CC3)C4)ncc(C(=O)O)c21 (some centres unmarked) [Example 30-58] | 210 |
| O=C(O)c1cnn2ccc(N3C4CC[C@H]3CC(OCc3c(-c5ccccc5OC(F)(F)F)noc3C3CC3)C4)nc12 (some centres unmarked) [Example 30-59] | 92 |
| O=C(O)c1cnc2ccc(N3C4CC[C@H]3CC(OCc3c(-c5ccccc5OC(F)(F)F)noc3C3CC3)C4)nn12 (some centres unmarked) [Example 30-60] | 94 |
| O=C(O)c1ccc2nc(N3C4CC[C@H]3CC(OCc3c(-c5ccc(F)cc5F)noc3C3CC3)C4)sc2c1 (some centres unmarked) [Example 30-61] | 2 |
| O=C(O)c1ccc(N2C3CC[C@H]2CC(OCc2c(-c4ccc(F)cc4F)noc2C2CC2)C3)nc1 (some centres unmarked) [Example 30-63] | 57 |
| COc1cc(C(=O)O)cc2sc(N3C4CC[C@H]3CC(OCc3c(-c5cccc(F)c5F)noc3C3CC3)C4)nc12 (some centres unmarked) [Example 30-64] | 7 |
| O=C(O)c1ccc(N2[C@@H]3CC[C@H]2C[C@@H](OCc2c(-c4cccc(F)c4F)noc2C2CC2)C3)nc1 [Example 30-65] | 86 |
| Cc1cc(C(=O)O)nc(N2C3CC[C@H]2CC(OCc2c(-c4cccc(F)c4F)noc2C2CC2)C3)n1 (some centres unmarked) [Example 30-66] | 220 |
| COc1cc(C(=O)O)cc2sc(N3[C@@H]4CC[C@H]3C[C@@H](OCc3c(-c5ccccc5F)noc3C3CC3)C4)nc12 [Example 30-67] | 0.5 |
| Cc1cc(C(=O)O)nc(N2C3CC[C@H]2CC(OCc2c(-c4ccccc4F)noc2C2CC2)C3)n1 (some centres unmarked) [Example 30-68] | 13 |
| O=C(O)c1ccc(N2[C@@H]3CC[C@H]2C[C@@H](OCc2c(-c4ccccc4F)noc2C2CC2)C3)nc1 [Example 30-69] | 21 |
| O=C(O)c1ccc2nc(N3C4CC[C@H]3CC(OCc3c(-c5c(Cl)cccc5Cl)noc3C3CC3)C4)sc2c1 (some centres unmarked) [Example 30-70] | 0.2 |
| COc1cc(C(=O)O)cc2sc(N3[C@@H]4CC[C@H]3C[C@@H](OCc3c(-c5c(Cl)cccc5Cl)noc3C3CC3)C4)nc12 [Example 30-71] | 0.3 |
| O=C(O)c1ccc(N2C3CC[C@H]2CC(OCc2c(-c4c(Cl)cccc4Cl)noc2C2CC2)C3)nc1 (some centres unmarked) [Example 30-72] | 1.4 |
